# According to BindingDB's records for patent US20260014133 (St. Jude''s Chidren''s Research Hospital, Inc., 2026):
# Biological target: DNA damage-binding protein 1/Protein cereblon (Homo sapiens, UniProt Q96SW2)
# Assay: CRBN Fluorescence Polarization Assay
# Experimental: In this competitive fluorescent polarization assay Cy5 conjugated lenalidomide analog (Cy5-O-Len)13 was used as a fluorescent probe. 6×His-CRBN-DDB1 protein (200 nM) and Cy5-O-Len probe (30 nM) were combined in 20 mM HEPES pH 7, 150 mM NaCl, 0.005% Tween-20 assay buffer. 20 μL of this assay cocktail was dispensed into wells of Corning 3821 black 384-well plates. Compounds were transferred to the assay plate from a dose-response plate using a Pintool on a Biomek FXP Laboratory Automation Workstation (Beckman Coulter). The plates were incubated in the dark for 1 hour at room temperature and then read on an Envision plate reader (PerkinElmer, Massachusetts, USA). IC50 values were determined using a proprietary software RISE (Robust Investigation of Screening Experiments), developed in house on the Pipeline Pilot platform (Biovia, v. 17.2.0). Data represent the mean of three independent determinations.
compound,measurement,value
"O=C1CCC(N2Cc3cc(NC(=O)Cc4ccccn4)ccc3C2=O)C(=O)N1 (stereo unspecified) [US20260014133, Compound 28]",IC50,< 1 µM
